Results as given in patent US7297660B2, “Alkylene carbonate adjuvants” (Huntsman Petrochemical Corporation, priority 2001, dated 2007).
Read-outs that look alike come from different tables or passages of the source.

Tests used:
[1] = free acid form; cited from earlier work
lambsquarters = assay: Bioefficacy testing with glyphosate, lambsquarters control; assay type: in vivo
Protocol: (§1) The adjuvancy of alkylene carbonates with glyphosate was then tested. Bioefficacy testing was conducted on lambsquarters and velvetleaf weeds. The mono-isopropylamine salt of glyphosate was applied to velvetleaf and lambsquarters weeds at 0.25 lb ae/acre, and the adjuvant mixtures were present at 0.1 v/v%. The spray volume was 20 gal/acre, and application was made at 25 psig.
(§2) Evaluations, with the same adjuvant mixtures listed above, were also made with ammonium sulfate (AMS) at 17 lb/100 gallons water carrier. For control purposes, a group of plants was not treated with any glyphosate, and another group of plants was treated with only glyphosate.
(§3) The two alkylene carbonate blends of PC and BC were compared to diethylene glycol (DEG) as a standard solvent in combination with two different nonionic surfactant systems. One surfactant system was a SURFONIC® N-95 alkyl phenol ethoxylate, and the second surfactant system was a SURFONIC® DDA-8 branched alcohol ethoxylate. (SURFONIC® brand ethoxylates are commercially available from Huntsman Petrochemical Corporation, Houston, Tex.).
(§4) The results are expressed in terms of percent control, where 0% represents no plant necrosis, and 100% represents complete plant necrosis.

velvetleaf = assay: Bioefficacy testing with glyphosate, velvetleaf control; assay type: in vivo
Protocol: as §1, §2, §3, §4

[2] = cited from earlier work
mammals = conditions: in vivo; cited from earlier work
[3] = Hansen Solubility Parameters of JEFFSOL brand alkylene carbonates
Surface tension = assay type: physicochemical
Dipole moment = assay type: physicochemical; conditions: 40° C.
rabbits = conditions: undiluted; cited from earlier work
[4] = tested on: Rat Hepatocyte Primary Culture; conditions: Rat Hepatocyte Primary Culture/DNA Repair Test; cited from earlier work
[5] = criteria promulgated by the European Union; cited from earlier work
skin = conditions: neat; cited from earlier work
guinea pigs = conditions: 21-day test; cited from earlier work
dogs = conditions: 21-day test; cited from earlier work
[6] = tested on: activated sludge bacteria taken from a wastewater treatment plant; conditions: 7 day test at 300 ppm; cited from earlier work

Structure (SMILES)	toxicity towards mammals (mammals)	Hansen Sol Par, dispersive [3] [cal^1/2 cm^−3/2]	Hansen Sol Par, hydrogen bonding [3] [cal^1/2 cm^−3/2]	Hansen Sol Par, polar [3] [cal^1/2 cm^−3/2]	Hansen Sol Par, total [3] [cal^1/2 cm ^−3/2]	Surface Tension (Surface tension; 25° C. (* = supercooled))	Surface Tension (Surface tension; 40° C.) [dynes/cm]	Dipole Moment (Dipole moment) [Debyes]	other results
O=C(O)CNCP(=O)(O)O [glyphosate, N-phosphonomethylglycine, reference compound]	–	–	–	–	–	–	–	–	water solubility [1]: low water solubility; lambsquarters control (necrosis/kill), overall (lambsquarters; FIG. 3, glyphosate 0.25 lb ae/acre, adjuvant 0.1 v/v%, no AMS): very little observed necrosis; velvetleaf control (necrosis), overall (velvetleaf; FIG. 1, glyphosate IPA salt 0.25 lb ae/acre, adjuvant 0.1 v/v%, no AMS): very little observed necrosis
CNC(=O)CSP(=S)(OC)OC [Cygon, dimethoate]	–	–	–	–	–	–	–	–	time to lose 50 percent of pest control power ([2]; mixed in water of pH 9): 48 min; time to lose 50 percent of pest control power ([2]; pH of 6): 720 min
CCC1COC(=O)O1 (stereo not drawn) [BC, 1,2-butylene carbonate]	relatively low toxicity	8.3	4.8	3.0	10.0	38.1 dynes/cm	37.0	5.28	–
O=C1OCCO1 [EC, ethylene carbonate]	–	–	–	–	–	44.0* dynes/cm	42.2	4.80	–
N.N.O=S(=O)(O)O [AMS, ammonium sulfate]	–	–	–	–	–	–	–	–	lambsquarters control, overall efficacy (lambsquarters; FIG. 4, glyphosate with AMS 17 lb/100 gallons): does not produce the dramatic improved efficacy; velvetleaf necrosis, overall (velvetleaf; FIG. 2, glyphosate with AMS 17 lb/100 gallons): dramatically increases velvetleaf necrosis
CC1COC(=O)O1 (stereo not drawn) [PC, propylene carbonate]	relatively low toxicity	9.8	2.0	8.8	13.3	40.9 dynes/cm	39.6	4.98	LD50 (rabbits): > 20 mL/kg; genotoxicity [4]: negative; biodegradability [5]: very readily biodegradable; skin irritation (skin): moderate skin irritation; toxicity by inhalation (guinea pigs): non-toxic; toxicity by inhalation (dogs): non-toxic; adverse effects on activated sludge bacteria [6]: did not show adverse effects
